EPA's ToxValDB 9.5 (doi:10.2903/j.efsa.2006.86r)
Converted amounts (≈) assume the structure as drawn.

Columns and labels:
Coturnix japonica = settings: acute; oral; mortality
Daphnia magna = settings: chronic/long-term; duration: 21 days
Apis mellifera = settings: acute, mortality
Canidae = settings: chronic; duration: 1 years; oral; Dog Other; clinical chemistry
Aphidius rhopalosiphi = assay: LR50; higher = less toxic; settings: acute; duration: 48 hours; reproduction
Typhlodromus pyri = assay: LR50; higher = less toxic; settings: acute; duration: 48 hours; reproduction

SMILES: CCS(=O)CCSP(=O)(OC)OC (stereo unspecified) [Oxydemeton-methyl]
- LC50 (Oncorhynchus mykiss; acute, duration: 96 hours, mortality): 17 µg/mL (≈ 69 µM)
- NOEC (Oncorhynchus mykiss; chronic/long-term, duration: 98 days): 1.8 mg/L
- LD50 (Coturnix japonica): 29 mg/kg
- LC50 (Tagia sp.; acute, duration: 14 days, mortality): 115 mg/kg
- NOEC (Tagia sp.; chronic/long-term, duration: 56 days, reproduction): 412 g/ha
- NOEC (Daphnia magna): 0.027 mg/L
- LD50 (Colinus virginianus; acute, oral, M, mortality): 34 mg/kg
- NOEC (Colinus virginianus; reproduction developmental): 0.97 mg/kg-day
- NOEL (Colinus virginianus; short-term, oral, diet, mortality): 56.6 mg/kg-day
- LD50 (Apis mellifera; duration: 48 hours, oral, unspecified): 0.2 µg/piece
- LD50 (Apis mellifera; duration: 72 hours, dermal): 0.175 µg/piece
- LD50 (Rattus norvegicus; acute, oral, mortality): 48 mg/kg
- NOAEL (Rattus norvegicus; chronic, duration: 2 years, clinical chemistry): 0.03 mg/kg-day
- NOAEL (Rattus norvegicus; reproduction developmental, M, reproduction): 0.15 mg/kg-day
- NOAEL (Rattus norvegicus; short-term, duration: 14 days, oral, clinical chemistry): 0.15 mg/kg-day
- NOAEL (Rattus norvegicus; subchronic, duration: 90 days, oral, clinical chemistry): 0.1 mg/kg-day
- NOEC (Anas platyrhynchos; reproductive): 7.65 mg/kg-day
- NOEL (Anas platyrhynchos; short-term, oral, feed, mortality): 119 mg/kg-day
- NOAEL (Canidae): 0.1 mg/kg-day
- LR50 (Aphidius rhopalosiphi): 42.5 g/ha
- LR50 (Typhlodromus pyri): 143 g/ha
